Test results from ChEMBL document CHEMBL1140124, “Triterpenoids from the leaves of Diospyros kaki (persimmon) and their inhibitory effects on protein tyrosine phosphatase 1B” (J Nat Prod, 2008).

These compounds were tested against T1, Tyrosine-protein phosphatase non-receptor type 1 (Homo sapiens, UniProt P18031) (assay: Inhibition of human recombinant PTP1B after 30 mins).
T1 sequence (P18031 whole entry): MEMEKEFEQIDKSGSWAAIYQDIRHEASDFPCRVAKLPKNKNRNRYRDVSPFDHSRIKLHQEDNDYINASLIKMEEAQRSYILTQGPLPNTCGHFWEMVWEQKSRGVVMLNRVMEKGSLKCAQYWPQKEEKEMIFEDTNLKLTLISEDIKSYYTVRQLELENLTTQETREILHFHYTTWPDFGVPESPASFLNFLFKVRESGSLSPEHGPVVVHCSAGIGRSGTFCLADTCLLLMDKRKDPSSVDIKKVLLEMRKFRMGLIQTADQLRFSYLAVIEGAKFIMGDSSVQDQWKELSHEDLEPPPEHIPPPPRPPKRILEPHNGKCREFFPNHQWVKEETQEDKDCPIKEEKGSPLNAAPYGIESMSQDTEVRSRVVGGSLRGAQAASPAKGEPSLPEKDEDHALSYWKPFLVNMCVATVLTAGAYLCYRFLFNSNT

| Compound | IC50 [µM] |
| --- | --- |
| CC1(C)CC[C@]2(C(=O)O)CC[C@]3(C)C(=CC[C@@H]4[C@@]5(C)CC[C@H](O)[C@](C)(CO)[C@@H]5CC[C@]43C)[C@@H]2[C@@H]1O [SPATHODIC ACID] | 18.8 |
| C[C@@H]1CC[C@]2(C(=O)O)CC[C@]3(C)C(=CC[C@@H]4[C@@]5(C)CC[C@@H](O)[C@](C)(CO)[C@@H]5CC[C@]43C)[C@@H]2[C@]1(C)O [BARBINERVIC ACID] | > 30 |
| C[C@@]1(CO)CC[C@]2(C(=O)O)CC[C@]3(C)C(=CC[C@@H]4[C@@]5(C)CC[C@@H](O)[C@](C)(CO)[C@@H]5CC[C@]43C)[C@@H]2C1 | > 30 |
| C[C@@H]1CC[C@]2(C(=O)O)CC[C@]3(C)C(=CC[C@@H]4[C@@]5(C)CC[C@@H](O)[C@](C)(C(=O)O)[C@@H]5CC[C@]43C)[C@@H]2[C@]1(C)O [DIOSPYRIC ACID B] | > 30 |
| CC1(C)CC[C@]2(C(=O)O)CC[C@]3(C)C(=CC[C@@H]4[C@@]5(C)CC[C@@H](O)[C@](C)(CO)[C@@H]5CC[C@]43C)[C@@H]2C1 [SCUTELLARIC ACID] | > 30 |
| C[C@H]1[C@H](C)CC[C@]2(C(=O)O)CC[C@]3(C)C(=CC[C@@H]4[C@@]5(C)CC[C@H](O)[C@](C)(CO)[C@@H]5CC[C@]43C)[C@H]12 | 12.8 |
| C[C@H]1[C@H](C)CC[C@]2(C(=O)O)CC[C@]3(C)C(=CC[C@@H]4[C@@]5(C)CC[C@@H](O)[C@](C)(CO)[C@@H]5CC[C@]43C)[C@H]12 | > 30 |
| C=C1CC[C@]2(C(=O)O)CC[C@]3(C)C(=CC[C@@H]4[C@@]5(C)CC[C@@H](O)[C@](C)(CO)[C@@H]5CC[C@]43C)[C@@H]2[C@]1(C)O [COUSSARIC ACID] | > 30 |
| C=C1CC[C@]2(C(=O)O)CC[C@]3(C)C(=CC[C@@H]4[C@@]5(C)CC[C@@H](O)[C@](C)(C(=O)O)[C@@H]5CC[C@]43C)[C@@H]2[C@]1(C)O [DIOSPYRIC ACID A] | > 30 |

Stronger by IC50, values ahead:

| IC50 [µM] | Compound |
| --- | --- |
| 3.5 | CC1(C)CC[C@]2(C(=O)O)CC[C@]3(C)C(=CC[C@@H]4[C@@]5(C)CCC(=O)C(C)(C)[C@@H]5CC[C@]43C)[C@@H]2C1 [OLEANONIC ACID] |
| 3.9 | C[C@@H]1CC[C@]2(C(=O)O)CC[C@]3(C)C(=CC[C@@H]4[C@@]5(C)CC[C@H](O)C(C)(C)[C@@H]5CC[C@]43C)[C@@H]2[C@]1(C)O [POMOLIC ACID] |
| 10.9 | C[C@@H]1CC[C@]2(C(=O)O)CC[C@]3(C)C(=CC[C@@H]4[C@@]5(C)CC[C@H](O)[C@](C)(CO)[C@@H]5CC[C@]43C)[C@@H]2[C@]1(C)O [ROTUNGENIC ACID] |
| 4.1 | CCCCCCCCCCCCCCCC(=O)C1=C(O)[C@@H](CO)OC1=O |
| 8.1 | C[C@@H]1CC[C@]2(C(=O)O)CC[C@]3(C)C(=CC[C@@H]4[C@@]5(C)CCC(=O)[C@](C)(CO)[C@@H]5CC[C@]43C)[C@@H]2[C@]1(C)O |
